Values joined by “and” are separate entries in the source; they are usually repeats but may differ in a detail not shown here. Equal entries are not always repeated. Where two headings read alike, the source gives them in different places.
Assay: Pharmacokinetic studies in rats (plasma and brain)
Assay type: in vivo
Description: Because binding to plasma protein was approximately 90%, we predicted that the free concentration at each time point was 10 times lower than the measured plasma concentration.
Pharmacokinetic studies in rats. Pharmacokinetics studies were contracted to the Drug Metabolism and Pharmacokinetics Core at Scripps Research. CP612 was dissolved at in 10% Tween-80/90% water and administered at 40 mg/kg/5 mL. Six rats were injected i.v. and 6 were injected i.p. Three rats were used to collect a full plasma time course from 5 minutes to 24 hours after dose. Then, brains were collected from these rats at 24 hours and from 3 additional rats at 2 hours after administration of compound. One rat receiving i.p. administration of CP612 was excluded as it had low/nondetectable levels indicating missed i.p. injection in that rat. Plasma samples were diluted 10-fold in blank plasma. Each brain was disrupted in potassium phosphate buffer (pH 7.4; 9 μL per 1mg tissue) on ice using brief sonication pulses. CP612 was detected with an API Triple Quad 5500 LC-MS/MS (SCIEX) using an MRM(+) method: CP612 (463/282, m/z) with carbamazepine (238/195.1, m/z) as an internal standard.

[1] = rat, i.v. 40 mg/kg, 24h, individual rat, 40 mg/kg
[2] = rat, plasma, ip, 40 mg/kg, i.p. 40 mg/kg, individual rat
[3] = rat, plasma, ip, 40 mg/kg, i.p. 40 mg/kg, mean all rats
[4] = rat, plasma, iv, 40 mg/kg, i.v. 40 mg/kg, individual rat
[5] = rat, plasma, iv, 40 mg/kg, i.v. 40 mg/kg, mean all rats

Structure (SMILES): N[C@H](CNC(=O)C1(c2ccc(Cl)cc2)CCCC1)c1ccc(C(=O)Nc2ccncc2)cc1 [CP612]
- Plasma concentration (rat, i.v. 40 mg/kg, 6h, individual rat, 40 mg/kg): 1.8230 µM and 1.1599 µM
- Plasma concentration (rat, i.v. 40 mg/kg, 8h, individual rat, 40 mg/kg): 1.5465 µM and 1.2657 µM
- Brain/Plasma [1]: 11.80 and 2.82 and 12.90
- Plasma concentration [1]: 0.1270 µM and 0.2873 µM and 0.1609 µM
- concentration at 2 h (rat, i.v. 40 mg/kg, 24h, individual rat, 40 mg/kg, read-out: Brain concentration): 1.4990 µM and 0.8100 µM and 2.0757 µM
- Plasma 2h/24h (rat, i.v. 40 mg/kg, individual rat, 40 mg/kg): 88.9456 and 42.9323 and 75.0336
- Plasma 2h/24h (rat, i.v. 40 mg/kg, mean all rats): 68.9705
- Plasma 2h/24h (rat, i.v. 40 mg/kg, mean of RM Plasma + Brain 24h rats): 68.9705
- Cmax (rat, ip, rats, 40 mg/kg i.p., plasma): 29.3 ± 1 µM
- Cmax (rat, iv, rats, 40 mg/kg i.v., plasma): 104 ± 3.1 µM
- concentration at 15 min [2]: 22 µM
- concentration at 15 min [3]: 21.9 µM
- concentration at 30 min [2]: 30.2 µM
- concentration at 30 min [3]: 25.4 µM
- concentration at 1 h [2]: 28.3 µM
- concentration at 1 h [3]: 28.3 µM
- concentration at 4 h [2]: 5.16 µM
- concentration at 4 h [3]: 5.82 µM
- concentration at 6 h (rat, plasma, ip, 40 mg/kg, i.p. 40 mg/kg, 6h, individual rat): 1.91 µM
- concentration at 6 h (rat, plasma, ip, 40 mg/kg, i.p. 40 mg/kg, 6h, mean all rats): 1.89 µM
- concentration at 8 h (rat, plasma, ip, 40 mg/kg, i.p. 40 mg/kg, 8h, individual rat): 2.29 µM
- concentration at 8 h (rat, plasma, ip, 40 mg/kg, i.p. 40 mg/kg, 8h, mean all rats): 2.13 µM
- concentration at 2 h (rat, plasma, ip, 40 mg/kg, rat, i.p. 40 mg/kg, 2h, individual rat, read-out: Plasma concentration): 14.4 µM
- concentration at 2 h (rat, plasma, ip, 40 mg/kg, rat, i.p. 40 mg/kg, 2h, mean all rats, read-out: Plasma concentration): 15 µM
- concentration at 2 h (rat, plasma, ip, 40 mg/kg, rat, i.p. 40 mg/kg, 2h, mean of Plasma 2h, Brain 2h rats, read-out: Plasma concentration): 15.1 µM
- concentration at 2 h (rat, plasma, ip, 40 mg/kg, rat, i.p. 40 mg/kg, 2h, mean of RM Plasma + Brain 24h rats, read-out: Plasma concentration): 14.7 µM
- concentration at 24 h (rat, plasma, ip, 40 mg/kg, rat, i.p. 40 mg/kg, 24h, individual rat, read-out: Plasma concentration): 0.38 µM
- concentration at 24 h (rat, plasma, ip, 40 mg/kg, rat, i.p. 40 mg/kg, 24h, mean all rats, read-out: Plasma concentration): 0.498 µM
- concentration at 24 h (rat, plasma, ip, 40 mg/kg, rat, i.p. 40 mg/kg, 24h, mean of RM Plasma + Brain 24h rats, read-out: Plasma concentration): 0.498 µM
- half-life (rat, plasma, ip, rats, 40 mg/kg i.p.): 6.8 ± 0.7 h
- concentration at 5 min [4]: 80.3 µM
- concentration at 5 min [5]: 80.3 µM
- concentration at 15 min [4]: 57 µM
- concentration at 15 min [5]: 52.6 µM
- concentration at 30 min [5]: 28.5 µM
- concentration at 1 h [4]: 26.4 µM
- concentration at 1 h [5]: 24.8 µM
- concentration at 4 h [4]: 3.97 µM
- concentration at 4 h [5]: 4.11 µM
- concentration at 6 h (rat, plasma, iv, 40 mg/kg, i.v. 40 mg/kg, 6h, individual rat): 1.68 µM
- concentration at 6 h (rat, plasma, iv, 40 mg/kg, i.v. 40 mg/kg, 6h, mean all rats): 1.55 µM
- concentration at 8 h (rat, plasma, iv, 40 mg/kg, i.v. 40 mg/kg, 8h, individual rat): 1.42 µM
- concentration at 8 h (rat, plasma, iv, 40 mg/kg, i.v. 40 mg/kg, 8h, mean all rats): 1.41 µM
- concentration at 2 h (rat, plasma, iv, 40 mg/kg, rat, i.v. 40 mg/kg, 2h, individual rat, read-out: Plasma concentration): 11.3 µM
- concentration at 2 h (rat, plasma, iv, 40 mg/kg, rat, i.v. 40 mg/kg, 2h, mean all rats, read-out: Plasma concentration): 13.9 µM
- concentration at 2 h (rat, plasma, iv, 40 mg/kg, rat, i.v. 40 mg/kg, 2h, mean of Plasma 2h, Brain 2h rats, read-out: Plasma concentration): 16 µM
- concentration at 2 h (rat, plasma, iv, 40 mg/kg, rat, i.v. 40 mg/kg, 2h, mean of RM Plasma + Brain 24h rats, read-out: Plasma concentration): 11.9 µM
- concentration at 24 h (rat, plasma, iv, 40 mg/kg, rat, i.v. 40 mg/kg, 24h, mean all rats, read-out: Plasma concentration): 0.192 µM
- concentration at 24 h (rat, plasma, iv, 40 mg/kg, rat, i.v. 40 mg/kg, 24h, mean of RM Plasma + Brain 24h rats, read-out: Plasma concentration): 0.192 µM
- half-life (rat, plasma, iv, rats, 40 mg/kg i.v.): 4 ± 0.6 h
- Brain penetration (rats, i.p. or i.v. injection): brain penetrant

— paper PMC12016938, “A small molecule PKCε inhibitor reduces hyperalgesia induced by paclitaxel or opioid withdrawal” (JCI Insight, 2025)
